# Test results: patent US10844081B2, “Protected organoboronic acids with tunable reactivity, and methods of use thereof” (The Board of Trustees of the University of Illinois, priority 2015, dated 2020)
# Tests used:
# [1] = Solubility of boronates in room temperature THF (NMR vs internal standard); format: physicochemical
# Experimental: To determine the solubility of each boronate given in the following table, a concentrated solution was prepared by repeated addition to a small amount (˜200 μL) of room temperature THF in a 7-mL vial until solid no longer dissolved upon stirring. The vials were then allowed to stir at room temperature overnight. […] 100 μL of the mixture was then filtered and had solvent removed. The residue was then taken up in 500 μL DMSO-d6 containing 1,4-dimethoxybenzene (˜0.01 M) as an internal standard and transferred to an NMR tube. The concentrations of the solutions were then determined by integration relative to internal standard. In each case, the measurements are an average of two experiments.
# [2] = Hydrolysis of MIDA boronate derivatives under slow release conditions (K3PO4, THF-d8/D2O, 60° C., 1H NMR); format: physicochemical; details: for boronate remaining: at 6 hours; for krel, relative rate constant for hydrolysis with respect to MIDA (krel=1): 5:1 THF-d8:D2O, 7.5 eq. K3PO4, 60° C.; for reduction in the rate of hydrolysis: relative to MIDA boronate
# Experimental: Compounds 1-6 (FIG. 4A) were prepared and then characterized in terms of their rates of hydrolysis under defined conditions relative to MIDA compound 4. Reaction conditions were: 5:1 THF-d8:D2O, 0.07 M in boronate, 7.5 eq. K3PO4, 60° C. Reactions were stirred for 0.5 to 2.0 h before being cooled and diluted with DMSO-d6 containing 1,4-dimethoxybenzene as an internal standard. ^1H NMR was taken immediately to determine % boronate remaining. For compounds 1, 2, and 3, n=2 and the average between the two runs is represented in the figure.
# To each of twelve 1 mL conical vials equipped with stirring vanes was added 100 μL (0.08 M, 0.008 mmol) of a THF-d8 solution of the indicated boronate, followed by 20 μL (3.0 M, 0.06 mmol, 7.5 eq.) of a D2O solution of K3PO4. Each vial was then capped, shaken briefly to mix, and then stirred in a 60° C. heat block at 800 RPM. At the indicated times, two vials were removed from the heat block, cooled briefly under a stream of air, and then had 680 μL DMSO-d6 containing 1,4-dimethoxybenzene (˜0.008 M) as an internal standard added. The vials were then again briefly capped, shaken to mix, and the solutions were then immediately transferred to NMR tubes and spectra were taken (16 scans, d1=10 s). Time points were taken at 0, 0.5, 1, 1.5, 2.0, 4.0, and 6.0 hours. The solutions for the 0 time points were made directly in the NMR tubes, shaken, and then had spectra obtained. The percentage boronate remaining was determined by average the integration of the aryl protons (which fully resolved from the corresponding aryl protons on the parent boronic acid) across the two runs, except in the case of octyl TIDA boronate, for which the terminal methyl group of the octyl chain was used. Relative rate constants were obtained by assuming pseudo-first order kinetics and plotting the natural log of percentage boronate remaining vs time (ie. ln([boronate]/[boronate]o) vs t) (FIG. 13).
# Each time point represents the average of n=2 experiments, except in the case of the N-Cy and N-iPr MIDA, for which n=1.
# [3] = slow release hydrolysis conditions
compound,measurement,setting,value
5-Formyl-2-furanyl TIDA Boronate,solubility in THF,[1],212 mM
"CN1CC(=O)OB(c2ccc(C=O)o2)OC(=O)C1 [5-Formyl-2-furyl MIDA boronate, reference compound]",solubility in THF,[1],trace
"Cc1ccc([B-]23OC(=O)C(C)(C)[N+]2(C)C(C)(C)C(=O)O3)cc1 (stereo not shown) [p-tolylTIDA boronate, p-Tolyl TIDA Boronate]",solubility in THF (in words),[1],lack of solubility
Octyl TIDA Boronate [octylTIDA boronate],hydrolysis after 6 hours (in words),"[2]; after 6 hours, slow release hydrolysis conditions",no measurable hydrolysis
same,solubility in THF (in words),[1],completely soluble
p-Tolyl DibutylMIDA boronate [R=nBu],boronate remaining,[2]; [3],about 25%
p-Tolyl DiethylMIDA Boronate,"krel, relative rate constant for hydrolysis with respect to MIDA (krel=1)",[2],0.12
p-Tolyl DimethylMIDA Boronate,"krel, relative rate constant for hydrolysis with respect to MIDA (krel=1)",[2],0.08
same,boronate remaining,[2]; [3],~80%
same,rate of hydrolysis with added phase transfer catalyst (in words),[2]; free dibutyl ligand or tetrabutylammonium bromide added,hydrolyzed faster than the lone boronate
same,reduction in the rate of hydrolysis,[2],12.5 fold
p-Tolyl SchMIDA Boronate,"krel, relative rate constant for hydrolysis with respect to MIDA (krel=1)",[2],0.092
same,reduction in the rate of hydrolysis,[2],10.9 fold
